This note sets out measurements from patent US9249102B2 (priority 2012, dated 2016).

For experiment [1], the system named is microfilaria of Dirofilaria immitis. Briefly: Method F: microfilaria of Dirofilaria immitis, survival at 24 hours.
Another experiment concerns Haemonchus contortus. Briefly: Method A: Haemonchus contortus L1 larvae, microtitre plate screen. As to conditions: 96 h, read-out: motility inhibition.
The next experiment relates to Cooperia oncophora. Briefly: Method C: Cooperia oncophora L1 larvae in vitro. The settings on record: 96 h, read-out: inhibition of motility.
Where [2] appears, read: survival of microfilaria at 24 hours.

Like-named read-outs stand apart in the source and are kept apart here.

`CN(c1ccc([N+](=O)[O-])c(C(F)(F)F)c1)[C@H]1CC[C@H](OCC(=O)N2CCN(c3ccc4cc(Br)ccc4n3)CC2)CC1` [Compound 269, 2-[(4-[methyl-[4-nitro-3-(trifluoromethyl)phenyl]amino]cyclohexyl)-oxy]1-[4-(6-bromoquinolin-2-yl)piperazin-1-yl]ethan-1-one] had an EC50 in experiment [1] (setting [2]) of under 5 µg/mL. Moreover, the inhibition at 5 µg/mL in the experiment on Haemonchus contortus and in the experiment with Cooperia oncophora was at least 90% in each case.
Take `CN(c1ccc(C#N)c(C(F)(F)F)c1)[C@H]1CC[C@H](OCC(=O)N2CCN(c3ccc4cc(Cl)ccc4n3)CC2)CC1` [Compound 282, 2-[(4-[methyl[4-cyano-3-(trifluoromethyl)phenyl]amino]cyclohexyl)-oxy]1-[4-(6-chloroquinolin-2-yl)-piperazin-1-yl]ethan-1-one]: the inhibition at 5 µg/mL in the experiment with Haemonchus contortus and in the experiment on Cooperia oncophora was at least 90% each time.
The compound `O=C(CO[C@H]1CC[C@H](Nc2ccc([N+](=O)[O-])c(C(F)(F)F)c2)CC1)N1CCN(CC2Cc3cc(-c4ccc(F)cc4)ccc3O2)CC1` (stereo partly shown) [Compound 310, 1-{4-[5-(4-fluoro-phenyl)-2,3-dihydro-benzofuran-2-ylmethyl]-piperazin-1-yl}-2-[4-(4-nitro-3-trifluoromethyl-phenylamino)-cyclohexyloxy]-ethanone] yielded an EC50 in experiment [1] (setting [2]) of under 0.1 µg/mL. Moreover, the inhibition at 5 µg/mL in the experiment on Haemonchus contortus and in the experiment on Cooperia oncophora was at least 90% each time.
With `O=C(CO[C@H]1CC[C@H](Nc2ccc(S(=O)(=O)C(F)(F)F)cc2)CC1)N1CCN(Cc2nc3cc(C(F)(F)F)ccc3s2)CC1` [Compound 344, 1-[4-[[5-(trifluoromethyl)-1,3-benzothiazol-2-yl]methyl]piperazin-1-yl]-2-[4-[4-(trifluoromethylsulfonyl)anilino]cyclohexoxy]ethanone], the inhibition at 5 µg/mL in the experiment on Haemonchus contortus and with Cooperia oncophora was at least 90% each time.
In the case of `O=C(CO[C@H]1CC[C@H](Nc2ccc(S(=O)(=O)C(F)(F)F)cc2)CC1)N1CCN(c2ccc3cc(C(F)(F)F)ccc3n2)CC1` [Compound 331, 1-[4-[6-(trifluoromethyl)-2-quinolyl]piperazin-1-yl]-2-[4-[4-(trifluoromethylsulfonyl)anilino]cyclohexoxy]ethanone], the inhibition at 5 µg/mL in the experiment on Haemonchus contortus and with Cooperia oncophora was at least 90% in each case.
Regarding `C[C@@H]([C@H]1Cc2cc(F)ccc2O1)N1CCN(C(=O)COC2CCC(Nc3ccc([N+](=O)[O-])c(C(F)(F)F)c3)CC2)CC1` (relative stereo) [Compound 260, 1-(4-((S)-1-((R)-5-fluoro-2,3-dihydrobenzofuran-2-yl)ethyl)piperazin-1-yl)-2-(4-(4-nitro-3-(trifluoromethyl)phenylamino)cyclohexyloxy)ethanone], in experiment [1] (setting [2]), the EC50 is under 1 µg/mL. The inhibition at 5 µg/mL in the experiment with Haemonchus contortus and in the experiment with Cooperia oncophora was at least 90% throughout.
In the case of `O=C(CO[C@H]1CC[C@H](Nc2ccc([N+](=O)[O-])c(C(F)(F)F)c2)CC1)N1CCN(c2ccc3cc(F)ccc3c2F)CC1` [Compound 289, 1-[4-(1,6-difluoro-naphthalen-2-yl)-piperazin-1-yl]-2-[4-(4-nitro-3-trifluoromethyl-phenylamino)-cyclohexyloxy]-ethanone], the inhibition at 5 µg/mL in the experiment on Haemonchus contortus and in the experiment with Cooperia oncophora was at least 90% each time.
For the compound `CC(c1nc2cc(C(F)(F)F)ccc2s1)N1CCN(C(=O)CO[C@H]2CC[C@H](Nc3ccc([N+](=O)[O-])c(C(F)(F)F)c3)CC2)CC1` (stereo partly shown) [Compound 343, 2-[4-(4-nitro-3-trifluoromethyl-phenylamino)-cyclohexyloxy]-1-{4-[1-(5-trifluoromethyl-benzothiazol-2-yl)-ethyl]-piperazin-1-yl}-ethanone], the inhibition at 5 µg/mL in the experiment on Haemonchus contortus and with Cooperia oncophora was at least 90% in each case.
The compound `CC(c1cc2cc(Cl)ccc2o1)N1CCN(C(=O)CO[C@H]2CC[C@H](Nc3ccc([N+](=O)[O-])c(C(F)(F)F)c3)CC2)CC1` (stereo partly shown) [Compound 300] displayed a 50% effective concentration (EC50) in experiment [1] (setting [2]) of under 0.1 µg/mL. Further, the inhibition at 5 µg/mL in the experiment with Haemonchus contortus and with Cooperia oncophora was at least 90% each time.
In experiment [1] (setting [2]), `Cc1cc(N2CCN(C(=O)CO[C@H]3CC[C@H](Nc4ccc([N+](=O)[O-])c(C(F)(F)F)c4)CC3)CC2)nc2ccc(Cl)cc12` [Compound 270, 1-[4-(6-chloro-4-methyl-2-quinolyl)piperazin-1-yl]-2-[4-[4-nitro-3-(trifluoromethyl)anilino]cyclohexoxy]ethanone] showed an EC50 of under 1 µg/mL. In addition, the inhibition at 5 µg/mL in the experiment on Haemonchus contortus and in the experiment with Cooperia oncophora was at least 90% throughout.
In the case of `CN(c1ccc(C#N)c(C(F)(F)F)c1)[C@H]1CC[C@H](OCC(=O)N2CCN(c3ccc4cc(Br)ccc4n3)CC2)CC1` [Compound 281, 2-[(4-[methyl[4-cyano-3-(trifluoromethyl)phenyl]amino]cyclohexyl)-oxy]-1-[4-(6-bromoquinolin-2-yl)piperazin-1-yl]ethan-1-one], the inhibition at 5 µg/mL in the experiment on Haemonchus contortus and with Cooperia oncophora was at least 90% each time.
As to `O=C(CO[C@H]1CC[C@H](Nc2ccc([N+](=O)[O-])c(C(F)(F)F)c2)CC1)N1CCN(Cc2cc3cc(OC(F)(F)F)ccc3o2)CC1` [Compound 326, 2-[(4-[[4-nitro-3-(trifluoromethyl)phenyl]amino]cyclohexyl)-oxy]1-[4-[5-(trifluoromethoxy)benzofuran-2-ylmethyl]piperazin-1-yl]ethan-1-one], the inhibition at 5 µg/mL in the experiment with Haemonchus contortus and in the experiment on Cooperia oncophora was at least 90% throughout.
In turn, `N#Cc1ccc(NC2CCN(C(=O)CCCN3CCN(c4ccc5cc(F)ccc5c4)CC3)CC2)cc1C(F)(F)F` [Compound 18, 4-[(1-[4-[4-(6-fluoronaphthalen-2-yl)piperazin-1-yl]butanoyl]-piperidin-4-yl)amino]-2-(trifluoromethyl)benzonitrile] gave an EC50 in experiment [1] (setting [2]) of under 1 µg/mL. Moreover, the inhibition at 5 µg/mL with Haemonchus contortus is at least 90%.
Taken in the same sequence, the figures for `O=C(NCCO[C@H]1CC[C@H](Nc2ccc([N+](=O)[O-])c(C(F)(F)F)c2)CC1)C(=O)NCC1Cc2ccccc2O1` (stereo partly shown) [Compound 216] were under 1 µg/mL and at least 90%.
Taken in the same sequence, the figures for `Cc1cc(N2CCN(C(=O)CO[C@H]3CC[C@H](Nc4ccc([N+](=O)[O-])c(C(F)(F)F)c4)CC3)CC2)nc2ccc(Br)cc12` [Compound 277, 1-[4-(6-bromo-4-methyl-2-quinolyl)piperazin-1-yl]-2-[4-[4-nitro-3-(trifluoromethyl)anilino]cyclohexoxy]ethanone] were under 5 µg/mL and at least 90%.
Taken in the same sequence, the figures for `O=C(COc1ccc(Nc2ccc([N+](=O)[O-])c(C(F)(F)F)c2)cc1)N1CCN(Cc2cc3cc(Cl)ccc3o2)CC1` [Compound 184, 1-[4-[(5-chloro-1-benzofuran-2-yl)methyl]piperazin-1-yl]-2-(4-[[4-nitro-3-(trifluoromethyl)phenyl]amino]phenoxy)ethan-1-one] were under 1 µg/mL and at least 90%.
In experiment [1] (setting [2]), `O=C(NCCOc1ccc(Nc2ccc([N+](=O)[O-])c(C(F)(F)F)c2)cc1)C(=O)NCC1Cc2cc(Cl)ccc2O1` (stereo not shown) [Compound 226, N^1-((5-chloro-2,3-dihydrobenzofuran-2-yl)methyl)-N^2-(2-(4-(4-nitro-3-(trifluoromethyl)phenylamino)phenoxy)ethyl)oxalamide] returned a half-maximal effective concentration (EC50) of under 1 µg/mL. Moreover, the inhibition at 5 µg/mL in the experiment with Haemonchus contortus is at least 90%.
In experiment [1] (setting [2]), `O=C(CO[C@H]1CC[C@H](Nc2ccc([N+](=O)[O-])c(C(F)(F)F)c2)CC1)N1CCN(c2ccc3cc(Cl)ccc3c2)CC1` [Compound 233, 1-[4-(6-chloro-2-naphthyl)piperazin-1-yl]-2-[4-[4-nitro-3-(trifluoromethyl)anilino]cyclohexoxy]ethanone] came in with an EC50 of under 1 µg/mL. Further, the inhibition at 5 µg/mL with Haemonchus contortus was at least 90%.
Taken in the same sequence, the figures for `CC(CN1CCN(c2ccc3ccccc3c2)CC1)C(=O)N1CCC(Nc2ccc([N+](=O)[O-])c(C(F)(F)F)c2)CC1` (stereo not shown) [Compound 13, 2-methyl-3-[4-(naphthalen-2-yl)piperazin-1-yl]-1-(4-[[4-nitro-3-(trifluoromethyl)phenyl]amino]piperidin-1-yl)propan-1-one] were under 1 µg/mL and at least 90%.
The like results for `CC(O[C@H]1CC[C@H](Nc2ccc([N+](=O)[O-])c(C(F)(F)F)c2)CC1)C(=O)N1CCN(c2ccc3cc(Cl)ccc3n2)CC1` (stereo partly shown) [Compound 250, 1-[4-(6-chloroquinolin-2-yl)piperazin-1-yl]-2-[[4-[[4-nitro-3-(trifluoromethyl)phenyl]amino]cyclohexyl]oxy]propan-1-one] were, in that order, under 1 µg/mL and at least 90%.
Take `O=C(NCCO[C@H]1CC[C@H](Nc2ccc([N+](=O)[O-])c(C(F)(F)F)c2)CC1)C(=O)NCC1Cc2cc(F)ccc2O1` (stereo partly shown) [Compound 217]: in experiment [1], the EC50 was under 1 µg/mL. Moreover, in the experiment on Haemonchus contortus, the inhibition at 5 µg/mL was at least 90%.
Turning to `CN(c1ccc([N+](=O)[O-])c(C(F)(F)F)c1)[C@H]1CC[C@H](OCC(=O)N2CCN(Cc3cc4cc(Cl)ccc4o3)CC2)CC1` [Compound 275, 2-[(4-[methyl[4-nitro-3-(trifluoromethyl)phenyl]amino]cyclohexyl)-oxy]1-[4-(5-chlorobenzofuran-2-ylmethyl)piperazin-1-yl]ethan-1-one], the EC50 in experiment [1] (setting [2]) was under 1 µg/mL. Further, in the experiment with Haemonchus contortus, the inhibition at 5 µg/mL was at least 90%.
In turn, `O=C(CO[C@H]1CC[C@H](Nc2ccc([N+](=O)[O-])c(C(F)(F)F)c2)CC1)N1CC2CCC1CN2CC1Cc2cc(F)ccc2O1` (stereo partly shown) [Compound 309, 1-[5-(5-fluoro-2,3-dihydro-benzofuran-2-ylmethyl)-2,5-diaza-bicyclo[2.2.2]oct-2-yl]-2-[4-(4-nitro-3-trifluoromethyl-phenylamino)-cyclohexyloxy]-ethanone] registered an EC50 in experiment [1] (setting [2]) of under 0.1 µg/mL. For the same compound, the inhibition at 5 µg/mL in the experiment on Haemonchus contortus was at least 90%.
The like results for `N#Cc1ccc(NC2CCN(C(=O)CCCN3CCN(c4ccc5cc(Cl)ccc5n4)CC3)CC2)cc1C(F)(F)F` [Compound 96, 4-[(1-[4-[4-(6-chloroquinolin-2-yl)piperazin-1-yl]butanoyl]piperidin-4-yl)amino]-2-(trifluoromethyl)benzonitrile] were, in that order, under 5 µg/mL and at least 90%.
The like results for `O=C(COc1ccc(Nc2ccc([N+](=O)[O-])c(C(F)(F)F)c2)cc1)N1CCN(Cc2cc3cc(F)ccc3o2)CC1` [Compound 186] were, in that order, under 1 µg/mL and at least 90%.

A word on the EC50: it is the concentration that produces a half-maximal response. A lower EC50 goes with higher potency in that assay. One may read the inhibition as the share of the control response that was lost under treatment.
